Laboratory results: patent publication US10730868B2, “Bicyclic heteroaryl substituted compounds” (BRISTOL-MYERS SQUIBB COMPANY, priority 2016, dated 2020)

Target: PAR4 (Homo sapiens (Human), UniProt Q96RI0)
Assay: PAR4 FLIPR assay (antagonism of agonist-peptide-induced calcium mobilization)
Assay type: cell-based
Conditions: H-Ala-Phe(4-F)-Pro-Gly-Trp-Leu-Val-Lys-Asn-Gly-NH2-induced intracellular calcium mobilization, PAR4-expressing HEK293 cells; read-out: PAR4 FLTPR assay (IC50)
Procedure, shortened: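 HEK293 cells stably expressing human PAR4 (also endogenous PAR1), loaded with fluorescent calcium indicator in HBSS/20 mM HEPES; compounds added at 0.17% DMSO, read on FDSS for agonism, then 30 min RT before H-Ala-Phe(4-F)-peptide agonist challenge. Potency from 11-point concentration-response curves.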

PAR4, sequence (Q96RI0 18-385): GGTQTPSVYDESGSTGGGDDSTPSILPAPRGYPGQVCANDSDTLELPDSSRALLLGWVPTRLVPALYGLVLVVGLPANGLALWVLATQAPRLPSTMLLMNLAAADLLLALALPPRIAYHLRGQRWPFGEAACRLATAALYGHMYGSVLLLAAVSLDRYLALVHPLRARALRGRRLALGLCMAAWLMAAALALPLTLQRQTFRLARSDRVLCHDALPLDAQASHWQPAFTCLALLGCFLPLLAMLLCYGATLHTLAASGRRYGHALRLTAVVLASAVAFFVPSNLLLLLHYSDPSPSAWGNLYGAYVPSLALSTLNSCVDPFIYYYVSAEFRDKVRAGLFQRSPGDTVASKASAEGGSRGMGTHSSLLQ

| Compound | IC50 [nM] |
| --- | --- |
| COc1cnc2c(-c3nc4cc(F)c(O[C@H]5CC[C@H]5O)cc4s3)cc(C)cc2n1 [Example 60, cis-2-((5-fluoro-2-(2-methoxy-7-methylquinoxalin-5-yl)benzo[d]thiazol-6-yl)oxy)cyclobutanol (Homochiral)] | 9.8 |
| COc1cnc2c(-c3nc4cc(F)c(O[C@H]5CC[C@H]5OC(=O)Nc5cnc(OC[C@@H](C)O)nc5)cc4s3)cc(C)cc2n1 [Example 63] | 7.4 |
| COc1cnc2c(-c3nc4cc(F)c(O[C@H]5CC[C@H]5OC(=O)Nc5cnc(OCCO)nc5)cc4s3)cc(C)cc2n1 [Example 64] | 1.9 |
| COc1cnc2c(-c3nc4cc(F)c(O[C@H]5CC[C@H]5OC(=O)Nc5cnc(CCO)nc5)cc4s3)cc(C)cc2n1 [Example 65] | 3.7 |
| COc1cnc2c(-c3nc4cc(F)c(O[C@@H]5CC[C@@H]5OC(=O)Nc5cnc(C)nc5)cc4s3)cc(C)cc2n1 [Example 67] | 0.99 |
| COc1cnc2c(-c3nc4cc(F)c(O[C@@H]5CC[C@@H]5OC(=O)Nc5cnc(OCCO)nc5)cc4s3)cc(C)cc2n1 [Example 68] | 0.75 |
| COc1cnc2c(-c3nc4cc(F)c(O[C@H]5CC[C@H]5OC(=O)Nc5cnc(C)nc5)cc4s3)cc(C)cc2n1 [Example 69] | 1.2 |
| COc1cnc2c(-c3nc4cc(F)c(O[C@@H]5CC[C@@H]5OC(=O)Nc5cnc(CCO)nc5)cc4s3)cc(C)cc2n1 [Example 70] | 9 |
| COc1ccc(NC(=O)O[C@H]2CC[C@H]2Oc2cc3sc(-c4cc(C)cc5nc(OC)cnc45)nc3cc2F)cn1 [Example 72] | 1.1 |
| COc1ccc(NC(=O)O[C@@H]2CC[C@@H]2Oc2cc3sc(-c4cc(C)cc5nc(OC)cnc45)nc3cc2F)cn1 [Example 73] | 0.5 |
| CCOc1cnc2c(-c3nc4cc(F)c(O[C@@H]5CC[C@@H]5OC(=O)Nc5cnc(OCCO)nc5)cc4s3)cc(C)cc2n1 [Example 75] | 5.9 |
| COc1cnc2c(-c3nc4cc(F)c(O[C@@H]5CC[C@@H]5OC(=O)Nc5cnc(OCCO)nc5)cc4s3)cc(Cl)cc2c1 [Example 76] | 10 |
| CCOc1cnc2c(-c3nc4cc(F)c(O[C@@H]5CC[C@@H]5OC(=O)Nc5cnc(OCCO)nc5)cc4s3)cc(Cl)cc2c1 [Example 77] | 9.2 |
| COc1cnc2c(-c3nc4cc(F)c(O[C@@H]5CC[C@@H]5OC(=O)Nc5cnc(OCCO)nc5)cc4s3)cc(Cl)cc2n1 [Example 78] | 9.7 |
| COc1cnc2c(-c3nc4cc(F)c(O[C@@H]5CC[C@@H]5OC(=O)Nc5cnc(OCCO)nc5)cc4s3)cc(C#N)cc2n1 [Example 80] | 7 |
| COc1cnc2c(-c3nc4cc(F)c(O[C@@H]5CC[C@@H]5OC(=O)Nc5cnc(OCCO)nc5)cc4s3)cc(F)cc2c1 [Example 81] | 9.2 |
| COc1cnc2c(-c3nc4cc(F)c(O[C@H]5CC(F)(F)C[C@H]5OC(=O)Nc5cnc(C)nc5)cc4s3)cc(C)cc2n1 [Example 100] | 1.3 |
